Laboratory results: EP2246329A1, “4(1H)-pyridinone derivatives and their use as antimalaria agents” (Glaxo Group Limited, priority 2009, dated 2010)

Each compound was assayed on Plasmodium falciparum (assay: In vitro anti-malarial activity against Plasmodium falciparum, IC50 assay / [3H]-Hypoxanthine incorporation assay). Conditions: Erythrocyte; Plasmodium falciparum strains in parasitized red blood cells, [3H]-hypoxanthine incorporation, 48 hours at 37°C.
Type: cell-based
Description: The compounds of this invention may be tested in one of several biological assays to determine the concentration of compound which is required to have a given pharmacological effect. In vitro anti-malarial activity against Plasmodium falciparum. IC50 assay / [^3H]-Hypoxanthine assay
The culture medium comprised RPMI 1640 with 25mM HEPES, sodium bicarbonate and glutamine (GIBCO™ cat. ref.: 52400), supplemented with 10% of pooled human sera AB (Irvine Scientific, cat. ref.: 5009) and HT supplement (0.15 mM hypoxanthine and 24 µM thymidine), (GIBCO™ cat. ref.: 41065). Human sera were decomplemented 30 min. at 56°C, aliquoted and stored frozen at -20°C until use in this culture medium.
This culture medium ("complete medium") was usually prepared fresh just before use and pre-warmed to 37°C.
Red blood cells O+ stock suspensions were prepared from whole blood bags coming from incomplete blood donation, provided by the Spanish Red Cross (<25 days after sampling). This "whole blood" was aliquoted and stored at 4°C.
To prepare red blood cells for the assay, the whole blood was centrifuged and washed 3 times with RPMI without serum. The upper phase, containing white blood cells was removed. The washed red blood cells were kept as a 50 % suspension in complete medium. The prepared cells were stored at 4°C and were employed in the assay at any time up to 4 days after preparation.
Test compounds were dissolved at 2 mg/ml in 100% DMSO on the day of the assay. If necessary, complete dissolution was achieved by gentle heating (the mixture was heated at a temperature <37°C) and sonication (sonication bath).
For IC50 determinations, 10 serial 2-fold dilutions were prepared in complete medium in the presence of a constant amount of DMSO. Any obvious signs of insolubility of the stock solutions in 100% DMSO or precipitation when these solutions were diluted in assay media, were recorded.
Plasmodium falciparum strains were maintained in complete medium at an hematocrit of 5% in continuous culture using a method adapted from that published by Trager and Jensen(1) and Traeger(2).
The parasitemia was calculated by counting the percentage of parasitized erythrocytes by optical microscopy. Thin films of blood were made every day from each culture flask, fixed with methanol and stained for 10 min. in Giemsa (Merck, cat. ref.: 1.09204) at 10 % in buffered water pH 7.2. The glass slides were observed and counted with an optical microscope (Nikon, Eclipse E200) equipped with a 100 X immersion oil objective.
The culture was maintained at an hematocrit of 5%, with a daily change of medium and was diluted when parasitemia had reached about 5%.
[^3H] Hypoxanthine incorporation assay was conducted using a method adapted from Desjardins et al. (3). The assays were performed in 96 wells flat bottom microplates. • 1. Serial dilutions of the test compounds (50µl of a 5X solution / well) were deposited in duplicate. Compounds of the invention were tested in this assay. Chloroquine and Atovaquone were used as control compounds for each assay. • 2. […] [^3H]-Hypoxanthine (Amersham Biosciences, cat. ref.: TRK74) was added extemporaneously to the inoculum suspension at a concentration of 1 µCi/ml (equating to […]). 200 µl of the resulting suspension was distributed into each well (other than the control well H12 described below) leading to a final volume of 250 µl per well, at 2% of hematocrit and 0.5 % of parasitemia / well. • 4. […]

SMILES	IC50 [µg/mL]
Cc1[nH]c(C)c(-c2ccc(C#CCN(C)CCC(C)(C)C)cc2)c(=O)c1Cl.Cl [Example 48, 3-Chloro-5-(4-{3-[(3,3-dimethylbutyl)(methyl)amino]-1-propyn-1-yl}phenyl)-2 ,6-dimethyl-4(1H)-pyridinone hydrochloride]	< 0.125
Cc1[nH]c(C)c(-c2ccc(CN3CCC(c4ccc(OC(F)(F)F)cc4)CC3)cc2)c(=O)c1Cl.Cl [Example 24, 3-Chloro-2,6-dimethyl-5-{4-[(4-{4-[(trifluoromethyl)oxy]phenyl}-1-piperidinyl)methyl]-phenyl}-4(1H)-pyridinone hydrochloride]	< 0.125
Cc1[nH]c(C)c(-c2cccc(CN(C)Cc3ccc(OC(F)(F)F)cc3)c2)c(=O)c1Cl.Cl [Example 25, 3-Chloro-2,6-dimethyl-5-(3-{[methyl({4-[(trifluoromethyl)oxy]phenyl}methyl)amino]-methyl}phenyl)-4(1H)-pyridinone hydrochloride]	< 0.125
Cc1[nH]c(C)c(-c2ccc(C#CCN3CCc4cccc(C(F)(F)F)c4C3)cc2)c(=O)c1Cl.Cl [Example 15, 3-Chloro-2,6-dimethyl-5-(4-{3-[8-(trifluoromethyl)-3,4-dihydro-2(1H)-isoquinolinyl]-1-propyn-1-yl}phenyl)-4(1H)-pyridinone hydrochloride]	< 0.125
Cc1[nH]c(C)c(-c2ccc(C#CCN(C)Cc3ccc(F)cc3F)cc2)c(=O)c1Cl.Cl [Example 40, 3-Chloro-5-(4-{3-[[(2,4-difluorophenyl)methyl](methyl)amino]-1-propyn-1-yl}phenyl)-2,6-dimethyl-4(1H)-pyridinone hydrochloride]	< 0.125
Cc1[nH]c(C)c(-c2ccc(-c3ccc(CN4CCC(C(F)(F)F)CC4)cc3)cc2)c(=O)c1Cl.Cl [Example 57, 3-chloro-2,6-dimethyl-5-(4'-{[4-(trifluoromethyl) -1-piperidinyl]methyl}-4-biphenylyl)-4(1H)-pyridinone hydrochloride]	< 0.125
